Our source for the IC50 values is US20220153734A1, “Pyrazolopyridine Compounds For IRE1 Inhibition” (Optikira, LLC, priority 2019, published 2022).

The structures appear in SMILES notation.

As usually defined, the IC50 is the point on the concentration scale where inhibition reaches its midpoint. Read a high IC50 as lower potency.

Assay [1] concerns ARPE-19 cells stably expressing XBP1 (a.a. 1-376). Briefly: Cellular XBP1 splicing assay (NanoLuc luciferase, thapsigargin). It is filed as cell-based. To be noted: thapsigargin 150 nM. In outline:
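ARPE-19 cells carrying an XBP1(1-376)-NanoLuc splicing reporter were pretreated with compound (10-point ½-log series, 0.117% DMSO) for 30 min, then stressed with 150 nM thapsigargin for 4 h at 37° C. Luminescence was read, and IC50 values came from sigmoidal fits of percent inhibition of control.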

The target of assay [2] is T1, IRE1α (Homo sapiens, UniProt O75460).
T1 construct: purchased Signal Chem E31-11G
T1 sequence (O75460 468-977 limits assumed): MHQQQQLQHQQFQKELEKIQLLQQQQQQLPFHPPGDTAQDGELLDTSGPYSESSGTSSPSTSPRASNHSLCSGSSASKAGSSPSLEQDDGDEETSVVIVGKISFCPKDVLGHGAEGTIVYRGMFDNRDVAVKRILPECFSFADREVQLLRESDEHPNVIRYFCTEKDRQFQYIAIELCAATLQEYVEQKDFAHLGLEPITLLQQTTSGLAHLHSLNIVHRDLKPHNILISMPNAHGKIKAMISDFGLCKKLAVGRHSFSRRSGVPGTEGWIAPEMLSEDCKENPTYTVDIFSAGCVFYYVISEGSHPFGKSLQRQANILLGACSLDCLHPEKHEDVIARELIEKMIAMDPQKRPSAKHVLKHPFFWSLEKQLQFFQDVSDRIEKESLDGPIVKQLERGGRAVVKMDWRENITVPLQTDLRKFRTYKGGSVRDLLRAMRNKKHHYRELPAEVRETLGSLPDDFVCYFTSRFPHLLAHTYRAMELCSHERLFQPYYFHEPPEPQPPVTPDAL
As to the kind of experiment: Biochemical assay to detect inhibition of kinase activity of IRE1α (ADP-Glo). How it is done: Biochemical Assays to Detect Inhibition of Kinase Activity of IRE1α
The kinase reactions were performed in 384 well white ProxiPlate-384 Plus plates (PERKIN Elmer 6008280) using 25 mM MOPS assay buffer with 1 mM dithiothreitol, 25 mM MgCl2, 12.5 mM β-glycerophosphate, 5 mM EGTA, and 50 μg/mL BSA. Test compounds were prepared on the day of assay and dispensed using D300 digital dispenser as a 10-point ½ log dilution series in duplicate, normalized to a final DMSO concentration of 3%. Test compounds were pre-incubated for 30 min at room temperature with 10 nM IRE1α kinase (E31-11G from Signal Chem) in 2.5 μL of assay buffer and the reaction started by addition of 2.5 μL of ATP in assay buffer, to give a final ATP concentration of 100 μM and 5 nM IRE1α kinase. After 4 hours incubation at room temperature the reactions were stopped and the kinase activity determined using the ADP-Glo™ reagent from Promega, according to the manufacturer's instructions. Luminescence was measured on a luminometer (EnVision, PerkinElmer) and IC50 values calculated by fitting a sigmoidal curve to percent inhibition of control versus Log10 of compound concentration.
In general terms: ADP-Glo first removes unused ATP, then detects ADP through luciferase.

Assay [3] addresses T1, IRE1α. As to the kind of experiment: Biochemical assay: inhibition of RNase activity of IRE1α. To be noted: enzyme 0.325 nM, substrate 100 nM, 20 minutes. Summed up:
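Recombinant IRE1α (0.325 nM final) pre-incubated 30 min at room temperature with compounds (10-point ½-log series, duplicate, 4% DMSO final). Then 100 nM fluorophore/quencher-labelled RNA substrate added in 50 mM Tris, 0.5 mM MgCl2, 10 mM KCl, 2 mM DTT. Urea stop after 20 min; fluorescence read; IC50 from sigmoidal fit.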

As to `CC(C)n1nc(-c2ccc(NS(=O)(=O)Cc3ccccc3F)c(F)c2)c2c(N)ncc([C@H]3CC[C@H](NC4COC4)CC3)c21` [Compound A57, N-(4-(4-amino-1-isopropyl-7-((1r,4r)-4-(oxetan-3-ylamino)cyclohexyl)-1H-pyrazolo[4,3-c]pyridin-3-yl)-2-fluorophenyl)-1-(2-fluorophenyl)methanesulfonamide], the IC50 in assay [1] (Homo sapiens, ARPE-19, 4 h) was 2.5 nM; against IRE1α [2], 0.9 nM; against IRE1α [3] it was 0.4 nM.

On to `CCn1nc(-c2cc(F)c(NS(=O)(=O)c3ccccc3Cl)cc2F)c2c(N)ncc([C@H]3CC[C@H](NC4COC4)CC3)c21` [Compound A44, N-(4-(4-amino-1-ethyl-7-((1r,4r)-4-(oxetan-3-ylamino)cyclohexyl)-1H-pyrazolo[4,3-c]pyridin-3-yl)-2,5-difluorophenyl)-2-chlorobenzenesulfonamide], for which the IC50 in assay [1] (Homo sapiens, ARPE-19, 4 h) was found to be 31 nM; on IRE1α [2], 2.8 nM; against IRE1α [3], 8.2 nM.

For the compound `CC(C)n1nc(-c2ccc(NS(=O)(=O)Cc3ccccc3Cl)c(F)c2)c2c(N)ncc([C@H]3CC[C@H](N(C)C)CC3)c21` [Compound A51, N-(4-(4-amino-7-((1r,4r)-4-(dimethylamino)cyclohexyl)-1-isopropyl-1H-pyrazolo[4,3-c]pyridin-3-yl)-2-difluorophenyl)-1-(2-chlorophenyl)methanesulfonamide], the IC50 is 2 nM in assay [1] (Homo sapiens, ARPE-19, 4 h); 2.7 nM on IRE1α [2]; 0.5 nM against IRE1α [3].

Regarding `CC(C)n1nc(-c2cc(F)c(NS(=O)(=O)Cc3ccccc3F)cc2F)c2c(N)ncc([C@H]3CC[C@H](NC4COC4)CC3)c21` [Compound A48, N-(4-(4-amino-1-isopropyl-7-((1r,4r)-4-(oxetan-3-ylamino)cyclohexyl)-1H-pyrazolo[4,3-c]pyridin-3-yl)-2,5-difluorophenyl)-1-(2-fluorophenyl)methanesulfonamide], the IC50 in assay [1] (Homo sapiens, ARPE-19, 4 h) is 6.4 nM; against IRE1α [2], 1.6 nM; at IRE1α [3], 1.9 nM.

On to `CC(C)n1nc(-c2ccc(NS(=O)(=O)c3ccccc3F)c(F)c2)c2c(N)ncc(C3=CCC(NC4COC4)CC3)c21` (single isomer, unassigned) [Compound B59, N-(4-(4-amino-1-isopropyl-7-(4-(oxetan-3-ylamino)cyclohex-1-en-1-yl)-1H-pyrazolo[4,3-c]pyridin-3-yl)-2-fluorophenyl)-2-fluorobenzenesulfonamide], for which the IC50 in assay [1] (4 hour) amounted to 36 nM; against IRE1α [2] it was 5.9 nM.

Regarding `CC(C)n1nc(-c2cc(F)c(NS(=O)(=O)Cc3ccccc3Cl)cc2F)c2c(N)ncc(C3=CCC(NC4COC4)CC3)c21` (single isomer, unassigned) [Compound B6, N-(4-(4-amino-1-isopropyl-7-(4-(oxetan-3-ylamino)cyclohex-1-en-1-yl)-1H-pyrazolo[4,3-c]pyridin-3-yl)-2,5-difluorophenyl)-1-(2-chlorophenyl)methanesulfonamide], the IC50 in assay [1] (4 hour) worked out at 47 nM; against IRE1α [2], 5.2 nM; on IRE1α [3], 5.1 nM.

On to `Cc1ccc(F)c(S(=O)(=O)Nc2ccc(-c3nn(C(C)C)c4c(C5=CCC(NC6COC6)CC5)cnc(N)c34)cc2F)c1` (racemic) [racemic mixture of B16 & B17, N-(4-(4-amino-1-isopropyl-7-(4-(oxetan-3-ylamino)cyclohex-1-en-1-yl)-1H-pyrazolo[4,3-c]pyridin-3-yl)-2-fluorophenyl)-2-fluoro-5-methylbenzenesulfonamide], for which the IC50 in assay [1] (Homo sapiens, ARPE-19, 4 h) is 94 nM; at IRE1α [3], 13 nM.

`COCCN[C@H]1CC[C@H](c2cnc(N)c3c(-c4cc(F)c(NS(=O)(=O)c5cc(F)ccc5F)cc4F)nn(C(C)C)c32)CC1` [Compound A31, N-(4-(4-amino-1-isopropyl-7-((1r,4r)-4-((2-methoxyethyl)amino)cyclohexyl)-1H-pyrazolo[4,3-c]pyridin-3-yl)-2,5-difluorophenyl)-2,5-difluorobenzenesulfonamide]: the IC50 in assay [1] (Homo sapiens, ARPE-19, 4 h) turned out to be 39 nM; against IRE1α [3] it was 8.6 nM.
